# Reference: patent publication US20130047297A1, “POLYNUCLEOTIDE MOLECULES FOR GENE REGULATION IN PLANTS” (priority 2010, published 2013)
# B1: PDS 700-mer dsRNA: dsRNA designed from nucleotides 421-1120 of SEQ ID NO:2 (nucleic acid, listed as Nicotiana benthamiana)
# DNA: GCAAGAGATGTCCTAGGTGGGAAGGTAGCTGCATGGAAAGATGATGATGGAGATTGGTACGAGACTGGGTTGCACATATTCTTTGGGGCTTACCCAAATATGCAGAACCTGTTTGGAGAACTAGGGATTGATGATCGGTTGCAGTGGAAGGAACATTCAATGATATTTGCGATGCCTAACAAGCCAGGGGAGTTCAGCCGCTTTGATTTTCCTGAAGCTCTTCCTGCGCCATTAAATGGAATTTTGGCCATACTAAAGAACAACGAAATGCTTACGTGGCCCGAGAAAGTCAAATTTGCTATTGGACTCTTGCCAGCAATGCTTGGAGGGCAATCTTATGTTGAAGCTCAAGACGGTTTAAGTGTTAAGGACTGGATGAGAAAGCAAGGTGTGCCTGATAGGGTGACAGATGAGGTGTTCATTGCCATGTCAAAGGCACTTAACTTCATAAACCCTGACGAGCTTTCGATGCAGTGCATTTTGATTGCTTTGAACAGATTTCTTCAGGAGAAACATGGTTCAAAAATGGCCTTTTTAGATGGTAACCCTCCTGAGAGACTTTGCATGCCGATTGTGGAACATATTGAGTCAAAAGGTGGCCAAGTCAGACTAAACTCACGAATAAAAAAGATCGAGCTGAATGAGGATGGAAGTGTCAAATGTTTTATACTGAATAATGGCAGTACAATTAAAGGAGATG
# modifications: dsRNA of this region
# B2: Oligos 1, 2, and 3 w/o T7 promoter and oligos 4, 5, & 6: SEQ ID NOs 18, 19, 22, 23, 24, 25, 26 (nucleic acid)
# chain 1: GCAAGAGATGTCCTAGGTGGG
# chain 2: ACAGATTTCTTCAGGAGAAACATGG
# chain 3: CATCTCCTTTAATTGTACTGCC
# chain 4: TTTAATTGTACTGCCATTATTC
# chain 5: CACTTCCATCCTCATTCAGCTCGAT
# chain 6: ACACCTCATCTGTCACCCTATCAG
# chain 7: CAGTCTCGTACCAATCTCCATCAT
# modifications: DNA, backbone not given here
# B3: 200-mer dsRNA polynucleotide: dsRNA corresponding to nucleotides 914-1113 of SEQ ID NO:2 (nucleic acid, listed as Nicotiana benthamiana)
# sense: ACAGATTTCTTCAGGAGAAACATGGTTCAAAAATGGCCTTTTTAGATGGTAACCCTCCTGAGAGACTTTGCATGCCGATTGTGGAACATATTGAGTCAAAAGGTGGCCAAGTCAGACTAAACTCACGAATAAAAAAGATCGAGCTGAATGAGGATGGAAGTGTCAAATGTTTTATACTGAATAATGGCAGTACAATTAAA
# modifications: complementary strand
# Legend:
# [1] = tested on: glyphosate-resistant Palmer amaranth plants; experiment: Salts, EDTA, glycerin as additives to polynucleotide spray solutions (Example 35, Tables 26-28); format: in vivo; conditions: for enhancing the efficacy of the polynucleotides and potentiating the herbicidal activity of glyphosate: additive in the spray solution
# [2] = tested on: Nicotiana benthamiana phytoene desaturase; experiment: Topical oligonucleotides/polynucleotides on tobacco, PDS bleaching and chlorophyll (Example 10); format: in vivo; conditions: for Chlorophyll (day 12) / Chlorophyll (day 7): 6 spots on the apical area; for Chlorophyll (day 12): buffer control 38.4; for Chlorophyll (day 7): lower values indicate suppression of phytoene desaturase, buffer control 31.2; for Bleaching (day 5): 25 microM each; for systematically regulating (suppressing) the target gene phytoene desaturase: Table 4 treatments; for bleaching of apical leaves (FIG. 15): another assay; for bleaching of apical leaves (FIG. 14): topical treatment
# Description: The following procedure was used for all assays described in this example. Four-week old Nicotiana benthamiana plants were used in all assays. Plants were treated with 0.1% Silwet L-77 solution freshly made with ddH2O. Two fully expanded leaves per plant (one cotyledon, one true leaf) were dipped into the Silwet L-77 solution for a few seconds, and allowed to dry for 15-30 minutes before application of the polynucleotide composition. Final concentration for each oligonucleotide or polynucleotide was 25 microM (in 0.01% Silwet L-77, 5 mM sodium phosphate buffer, pH 6.8) unless otherwise stated. 20 microliters of the solution was applied to the top surface of each of the two pre-treated leaves to provide a total of 40 microliters (1 nmol oligonucleotide or polynucleotide) for each plant. Leaf bleaching was observed 3 days post treatment.
# FIG. 13 illustrates phenotypes observed at day 12 after treatment in another assay of the effect from twelve combinations of polynucleotides or oligonucleotides (see Table 4). Table 4 also lists observations of visible bleaching of the plants at day 5 after treatment and the results of chlorophyll measurements taken at days 7 and 12 after treatment. Chlorophyll measurements are an indication of suppression of the target gene phytoene desaturase, and measurements were taken at 6 spots on the apical area, focussing on visibly bleached leaves or (in plants without visible bleaching) on leaves in equivalent locations on the plants; lower chlorophyll measurement values indicate suppression of phytoene desaturase.
# [3] = Table 26: additive to 1% Silwet L-77 spray solution of polynucleotides (RNA), glyphosate
# [4] = 2% salt as additive to 1% Silwet L-77 spray solution of topically applied polynucleotides (RNA), glyphosate
molecule,measurement,setting,value
"O=C(O)CN(CCN(CC(=O)O)CC(=O)O)CC(=O)O [EDTA, ethylenediaminetetraacetic acid]",Palmer control (%),"[1]; Table 26: additive (2% ammonium sulfate; 0.004% EDTA) to 1% Silwet L-77 spray solution of polynucleotides (RNA), glyphosate",45%
same,Palmer height (cm),[1]; [3],1.0 cm
same,enhancing the efficacy of the polynucleotides and potentiating the herbicidal activity of glyphosate,[1],act similarly to 2% ammonium sulfate
"OCC(O)CO [Glycerin, glycerin]",enhancing the efficacy of the polynucleotides and potentiating the herbicidal activity of glyphosate,[1],enhance the efficacy of the polynucleotides
Cl.N [ammonium chloride],Palmer control (%),[1]; [4],52%
same,Palmer height (cm),[1]; [4],10.3 cm
same,enhancing the efficacy of the polynucleotides and potentiating the herbicidal activity of glyphosate,[1],act similarly to ammonium sulfate
N.N.O=S(=O)(O)O [ammonium sulfate],Palmer control (%),[1]; [4],54%
same,Palmer height (cm),[1]; [4],9.3 cm
same,Palmer height (cm),[1]; [3],1.8 cm
same,Palmer control (%),[1]; in vivo,43%
[Cl-].[Na+] [sodium chloride],Palmer control (%),[1]; [4],15%
same,Palmer height (cm),[1]; [4],15.0 cm
O=S(=O)([O-])[O-].[Na+].[Na+] [sodium sulfate],Palmer control (%),[1]; in vivo,7%
same,Palmer height (cm),[1]; in vivo,17.0 cm
CCCC[P+](CCCC)(CCCC)CCCC.[Br-] [tetrabutylphosphonium bromide],enhancing the efficacy of the polynucleotides and potentiating the herbicidal activity of glyphosate,[1],act similarly to ammonium sulfate
CC[N+](CC)(CC)CC.[Cl-] [tetraethylammonium chloride],Palmer control (%),[1]; [4],27%
same,Palmer height (cm),[1]; [4],12.0 cm
C[N+](C)(C)C.[Cl-] [tetramethylammonium chloride],Palmer control (%),[1]; in vivo,19%
same,Palmer height (cm),[1]; in vivo,15.0 cm
"Oligo 3 without T7 promoter: SEQ ID NOs 22, 23; PDS anti-sense 22-mer oligonucleotides without a T7 promoter (antisense 1 CATCTCCTTTAATTGTACTGCC; antisense 2 TTTAATTGTACTGCCATTATTC; listed as DNA, chemistry not given here)",Chlorophyll (day 12),[2],3.2
same,Chlorophyll (day 7),[2],11.3
same,Bleaching (day 5),[2]; 40 microliters per plant,strong
same,systematically regulating (suppressing) the target gene phytoene desaturase,[2],effective
same,bleaching of apical leaves (FIG. 15),[2],strong bleaching
same,bleaching of apical leaves (FIG. 14),[2],Strong bleaching
"Oligos 1 and 2 without T7 promoter: SEQ ID NOs 18, 19 (chain 1 GCAAGAGATGTCCTAGGTGGG; chain 2 ACAGATTTCTTCAGGAGAAACATGG; DNA, backbone not given here)",Chlorophyll (day 12),[2],41.1
same,Chlorophyll (day 7),[2],32.0
same,Bleaching (day 5),[2]; 40 microliters per plant,not yet
same,systematically regulating (suppressing) the target gene phytoene desaturase,[2],did not suppress
"PDS 15-mer anti-sense ssDNA: SEQ ID NO:32 (antisense CATCTCCTTTAATTG; DNA, backbone not given here)",bleaching of apical leaves (FIG. 14),[2],Little or no visible bleaching
"PDS 18-mer anti-sense ssDNA: SEQ ID NO:33 (antisense CATCTCCTTTAATTGTAC; DNA, backbone not given here)",bleaching of apical leaves (FIG. 14),[2],Little or no visible bleaching
"PDS 21-mer sense ssDNA: SEQ ID NO:36 (sense GCAGTACAATTAAAGGAGATG; DNA, backbone not given here)",bleaching of apical leaves (FIG. 15),[2],Little or no visible bleaching
"PDS 33-mer anti-sense ssDNA: SEQ ID NO:35 (antisense CATCTCCTTTAATTGTACTGCCATTATTCAGTA; DNA, backbone not given here)",bleaching of apical leaves (FIG. 14),[2],Strong bleaching
B1,bleaching of apical leaves (FIG. 14),[2],Strong bleaching
B2,Chlorophyll (day 12),[2],34.4
same,Chlorophyll (day 7),[2],30.2
same,Bleaching (day 5),[2]; 40 microliters per plant,not yet
B3,Chlorophyll (day 12),[2],4.0
same,Chlorophyll (day 7),[2],11.3
same,Bleaching (day 5),[2]; 40 microliters per plant,strong
same,bleaching of apical leaves (FIG. 12A),"[2]; 200-mer dsRNA at 0.6 microM, oligonucleotides 25 microM each, 40 microliters per plant",Bleaching of apical leaves was observed
same,systematically regulating (suppressing) the target gene phytoene desaturase,[2],effective
